Square brackets hold non-standard residues; d marks the D form. Ends that are not written are not given here. pS = N[C@@H](COP(=O)(O)O)C(=O)O
What was measured:
myc-ROCKII = myc-ROCKII (Bos taurus, UniProt Q28021); assay: in vitro kinase reaction of immunoprecipitated myc-ROCKII with [γ-32P]ATP (autophosphorylation); format: biochemical; settings: immunoprecipitates preincubated with 100 μM Y27632; 30° C., 20 minutes
Protocol: myc-ROCKII-expressing cells were harvested in an immunoprecipitation (IP) buffer (1% NP-40, 5% glycerol, 50 mM Tris/HCl, pH 7.4, 150 mM NaCl, 1 mM PMSF (phenylmethylsulfonyl fluoride), and protease inhibitor cocktail). The lysates after pre-clearance were incubated with anti-myc antibody at 4° C. for 60 minutes, and then precipitated with protein A-agarose beads for 30 minutes. The immunoprecipitates were preincubated with or without 100 μM of Y27632 (ROCK inhibitor), which was followed by incubation with a IX kinase buffer (50 mM Tris/HCl, pH 7.4, 10 mM MgCl2, 1 mM EGTA (ethylene glycol tetraacetic acid), 0.5 mM DTT (dithiothreitol), 5 mM NaF, and 0.1 mM Na3VO4, 20 μM ATP) containing 5 μCi of [γ-^32p]ATP at 30° C. for 20 minutes. The immunoprecipitates (controls) from non-transfected cells were used backgrounds.
The myc-ROCKII protein overexpressed in HEK-293T cells was immunoprecipitated and subjected to an in vitro kinase reaction containing [γ-^32P]ATP in the presence or absence of the ROCK inhibitor Y27632.

[1] = system: ROCKII Ser^1366 phosphorylation; assay: Western blotting of serum-starved mouse embryonic fibroblasts stimulated with nocodazole with or without Y27632; format: cell-based
Protocol: FIGS. 6(A) and 6(B) respectively illustrate the Western blotting patterns showing (A) antibody-I and (B) antibody-II against the protein extract from normal mouse embryonic fibroblasts (MEFs) stimulated with nocodazole(10 μM) in present or absent of Y27632 (10 μM).
In addition to the above human cell experiments, the level of Ser^1366 phosphorylation of ROCKII in animal cells is also researched in the present invention.

[2] = molecular target: ROCKII Ser^1366 phosphorylation (Bos taurus, UniProt Q28021); assay: Western blotting of Ser1366 phosphorylated myc-ROCKII from treated HEK293T cells; format: cell-based, human; settings: Y27632 20 μM for 2 hours, probed with antibody-II
Protocol: myc-ROCKII-expressing cells were harvested in an immunoprecipitation (IP) buffer (1% NP-40, 5% glycerol, 50 mM Tris/HCl, pH 7.4, 150 mM NaCl, 1 mM PMSF (phenylmethylsulfonyl fluoride), and protease inhibitor cocktail). The lysates after pre-clearance were incubated with anti-myc antibody at 4° C. for 60 minutes, and then precipitated with protein A-agarose beads for 30 minutes. The immunoprecipitates were preincubated with or without 100 μM of Y27632 (ROCK inhibitor), which was followed by incubation with a IX kinase buffer (50 mM Tris/HCl, pH 7.4, 10 mM MgCl2, 1 mM EGTA (ethylene glycol tetraacetic acid), 0.5 mM DTT (dithiothreitol), 5 mM NaF, and 0.1 mM Na3VO4, 20 μM ATP) containing 5 μCi of [γ-^32p]ATP at 30° C. for 20 minutes. The immunoprecipitates (controls) from non-transfected cells were used backgrounds. The protein level of myc-ROCKII was detected by Western blotting with anti-myc antibody known by the skilled person in the art.

[3] = system: ROCKII Ser^1366 phosphorylation; assay: immunohistochemical staining of human breast tumor tissue with anti-pSer1366 ROCKII antibody and peptide competition; settings: antibody 5 μg/ml, peptide 0.5 μg/ml
Source text: FIG. 7 illustrates the immunohistochemistry images showing RCOKII Ser^1366 phosphorylation in human breast tumor tissues. The tumor part and non-tumor part breast tissues of from two breast cancer patients are sectioned, and probed with anti-pSer^1366 ROCKII antibody in the presence of phosphorylated peptide-lib and unphosphorylated peptide-IIa. The normal rabbit IgG is the control for negative reaction, and #1 is negative for lymph node and #2 is positive for lymph node.
The tumor part and the non-tumor part of the breast tissue blocks were embedded in Tissue-Tek OCT™ compound, snap-frozen, and sectioned into 5 μm cryosections. The sections were fixed with 4% (w/v) paraformaldehyde for 15 minutes and placed in boiling citrate buffer for 10 minutes. Endogenous peroxidase activity was quenched by 3% […] for 10 minutes and this was followed by incubation with 5.5% (v/v) normal goat serum in Tris-buffer saline containing 0.1% of Triton X-100 (TBST) for blocking. Sections were subsequently incubated with primary antibody against pSer^1366 ROCKII (1:200 dilution; 5 μg/ml) in the present or absence of the phosphopeptide or non-phosphopeptide (0.5 μg/ml). […]
Next, whether ROCKII Ser^1366 phosphorylation can be detected is determined by anti-pSer^1366 ROCKII antibody-II. […]

[4] = system: Ser^1366 phosphorylated myc-ROCKII; assay: Western blotting with anti-pSer1366 ROCKII antibody, with peptide neutralization and λPPase treatment; format: binding; settings: peptide 0.2 μg/ml, antibody 1 μg/ml
Protocol: FIG. 2(A) illustrates the Western blotting pattern showing anti-pSer^1366 ROCKII antibody-II against the phosphorylated ROCKII. myc-ROCKII protein is obtained with extraction after the WT or S1366A mutant myc-ROCKII expression constructs are respectively transfected into HEK-293T cells and immunoprecipitated using anti-myc antibody, and Ser^1366 phosphorylation of myc-ROCKII is probed with antibody-II (1 μg/ml) with or without the competition of phosphorylated peptide-IIa (0.2 μg/ml).
FIG. 3 illustrates the Western blotting pattern showing the signal of immunoprecipitated WT myc-ROCKII with or without λ protein phosphatase (λPPase) at 30° C. for 20 minutes treatment probed with antibody-II
(§1) myc-ROCKII-expressing cells were harvested in an immunoprecipitation (IP) buffer (1% NP-40, 5% glycerol, 50 mM Tris/HCl, pH 7.4, 150 mM NaCl, 1 mM PMSF (phenylmethylsulfonyl fluoride), and protease inhibitor cocktail). The lysates after pre-clearance were incubated with anti-myc antibody at 4° C. for 60 minutes, and then precipitated with protein A-agarose beads for 30 minutes. […] The protein level of myc-ROCKII was detected by Western blotting with anti-myc antibody known by the skilled person in the art. […]

[5] = system: Ser^1333 phosphorylated flag-ROCKI; assay: Western blotting with anti-pSer1333 ROCKI antibody, with peptide neutralization; format: binding; settings: peptide 0.2 μg/ml, antibody 1 μg/ml
Protocol: FIG. 2(B) illustrates the Western blotting pattern showing anti-pSer^1333 ROCKI antibody-I against the phosphorylated ROCKI. flag-ROCKI protein is obtained with extraction after the WT or S1333A mutant flag-ROCKI expression constructs are respectively transfected to […] cells and immunoprecipitated using anti-flag antibody, and Ser^1333 phosphorylation of flag-ROCKI is probed with antibody-I (1 μg/ml) with or without the competition of phosphorylated peptide-Ia (0.2 μg/ml).
as §1, with “minutes. The immunoprecipitates were preincubated with or without 100 μM of Y27632 (ROCK inhibitor), which was followed by incubation with a IX kinase buffer (50 mM Tris/HCl, pH 7.4, 10 mM MgCl2, 1 mM EGTA (ethylene glycol tetraacetic acid), 0.5 mM DTT (dithiothreitol), 5 mM NaF, and 0.1 mM Na3VO4, 20 μM ATP) containing 5 μCi of [γ-^32p]ATP at 30° C. for 20 minutes.” for “minutes.”

[6] = MEFs serum-starved 24 hours, nocodazole 10 μM

ROCKII Ser^1366 phosphorylation (Bos taurus, UniProt Q28021), sequence (Q28021 6-1388): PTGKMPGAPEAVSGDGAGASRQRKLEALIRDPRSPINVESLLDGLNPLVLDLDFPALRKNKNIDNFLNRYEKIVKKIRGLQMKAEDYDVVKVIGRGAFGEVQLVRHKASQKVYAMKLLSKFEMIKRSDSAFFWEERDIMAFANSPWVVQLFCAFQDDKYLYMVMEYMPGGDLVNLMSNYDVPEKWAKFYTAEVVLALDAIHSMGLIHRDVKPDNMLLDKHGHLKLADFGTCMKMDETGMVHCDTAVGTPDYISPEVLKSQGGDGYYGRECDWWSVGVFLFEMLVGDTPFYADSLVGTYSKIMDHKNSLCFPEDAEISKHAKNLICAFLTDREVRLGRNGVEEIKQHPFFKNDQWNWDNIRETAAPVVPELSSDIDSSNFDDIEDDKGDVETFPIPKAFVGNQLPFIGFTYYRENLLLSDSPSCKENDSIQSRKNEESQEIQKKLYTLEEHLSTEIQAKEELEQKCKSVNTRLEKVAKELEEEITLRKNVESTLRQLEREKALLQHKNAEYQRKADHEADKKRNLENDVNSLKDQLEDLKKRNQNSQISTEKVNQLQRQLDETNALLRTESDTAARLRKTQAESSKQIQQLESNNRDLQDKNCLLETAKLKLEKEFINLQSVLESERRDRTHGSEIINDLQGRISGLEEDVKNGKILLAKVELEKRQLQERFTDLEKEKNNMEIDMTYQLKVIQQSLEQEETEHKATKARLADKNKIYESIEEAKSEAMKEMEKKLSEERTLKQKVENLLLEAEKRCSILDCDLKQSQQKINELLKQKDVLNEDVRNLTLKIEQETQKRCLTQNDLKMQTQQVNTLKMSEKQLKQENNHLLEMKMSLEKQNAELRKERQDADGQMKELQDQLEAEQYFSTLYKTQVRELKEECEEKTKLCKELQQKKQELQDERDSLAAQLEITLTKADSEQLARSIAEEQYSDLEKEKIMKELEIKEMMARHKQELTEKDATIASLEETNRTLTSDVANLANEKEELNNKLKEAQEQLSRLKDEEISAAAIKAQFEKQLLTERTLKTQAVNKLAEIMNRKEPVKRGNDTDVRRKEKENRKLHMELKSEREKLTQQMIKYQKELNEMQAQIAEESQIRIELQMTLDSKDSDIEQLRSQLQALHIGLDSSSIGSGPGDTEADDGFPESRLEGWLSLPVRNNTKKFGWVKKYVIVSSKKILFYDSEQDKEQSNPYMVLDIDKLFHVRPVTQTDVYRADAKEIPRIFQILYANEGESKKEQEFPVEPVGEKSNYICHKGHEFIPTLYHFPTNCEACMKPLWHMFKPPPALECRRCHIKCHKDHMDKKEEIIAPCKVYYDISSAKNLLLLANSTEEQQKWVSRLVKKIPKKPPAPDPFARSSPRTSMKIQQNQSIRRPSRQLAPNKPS
myc-ROCKII, sequence (Q28021 6-1388): as above

Question: How did the “phosphorylation signal of radioactively labeled ROCKII” value (myc-ROCKII) turn out when `C[C@@H](N)[C@H]1CC[C@H](C(=O)Nc2ccncc2)CC1` [Y27632] was run?
Answer: abolished the phosphorylation signal

Question: And the “enhanced phosphorylation signal (ROCKII Ser^1366, phospho-MLC) induced by nocodazole” value ([1]; MEFs, nocodazole 10 μM plus Y27632 10 μM)?
Answer: disappeared

Question: What about the “signal level of Ser^1366 phosphorylated myc-ROCKII” value [2] of the same compound?
Answer: markedly decreased

Question: What does the source list for `COC(=O)Nc1nc2ccc(C(=O)c3cccs3)cc2[nH]1` [nocodazole]?
Answer: downstream phosphor-MLC signal regulated by ROCKII [1, 6]: markedly increased; signal of ROCKII Ser^1366 phosphorylation [1, 6]: enhanced

Question: What does the source list for “N′-DPFARSSPRTpSMK-C′ (SEQ ID NO:6) (DPFARSSPRT[pS]MK) [peptide-lib]”?
Answer: ROCKII Ser^1366 phosphorylation signal in IHC under peptide competition [3]: blocked; neutralization of the autophosphorylated signal of anti-pSer^1366 ROCKII antibody [4]: neutralized

Question: Which “neutralization of the autophosphorylated signal of anti-pSer^1333 ROCKI antibody” value [5] does the source give for “N′-RASPRTLpSTRS-C′ (SEQ ID NO:4) (RASPRTL[pS]TRS) [peptide-Ib]” here?
Answer: neutralized

— patent publication US9017952B2, “Reagents for probing ROCKs activation” (National Yang Ming University, priority 2012, dated 2015)
